Measured values from patent US20110245242A1, “Heterocyclically Substituted Anilinopyrimides” (Bayer CropScience AG, priority 2008, published 2011).

What was measured:
Assay type in all cases: physicochemical
[1] = log P by LC-MS, method [b], acid range pH 2.7; conditions: pH 2.7
Method: The log P values were measured in accordance with EEC Directive 79/831 Annex V.A8 by HPLC (High Performance Liquid Chromatography) on reversed-phase columns (C 18) using the methods below:
[b] The LC-MS determination in the acid range was carried out at pH 2.7 using the mobile phases 0.1% aqueous formic acid and acetonitrile (contains 0.1% formic acid)
linear gradient from 10% acetonitrile to 95% acetonitrile.

[2] = log P by HPLC on reversed-phase columns (C 18), method [a], acidic range pH 2.3; conditions: for log p / log P (pH 2.3): pH 2.3; for chromatographic logP: pH 2.3, log P (pH 2.3)
Method: The log P values were measured in accordance with EEC Directive 79/831 Annex V.A8 by HPLC (High Performance Liquid Chromatography) on reversed-phase columns (C 18) using the methods below: [a] The determination was carried out in the acidic range at pH 2.3 using the mobile phases 0.1% aqueous phosphoric acid and acetronitrile linear gradient from 10% acetonitrile to 95% acetronitrile.

[3] = physchem; conditions: pH 7.8
Method: The log P values were measured in accordance with EEC Directive 79/831 Annex V.A8 by HPLC (High Performance Liquid Chromatography) on reversed-phase columns (C 18) using the methods below: [c] The LC-MS determination in the neutral range was carried out at pH 7.8 using the mobile phases 0.001 molar aqueous ammonium bicarbonate solution and acetonitrile linear gradient from 10% acetonitrile to 95% acetonitrile.

chromatographic logP [2]	SMILES	also measured
	COCC(C)Nc1nc(Nc2ccc(N3CCCC3=O)cc2)ncc1Cl (stereo not shown) [Example 1]	log p [1]: 1.51[b]; log p [2]: 1.51[a];
	CC1CCC(=O)N1c1cccc(Nc2ncc(Cl)c(NC3CC3)n2)c1 (stereo not shown) [Example 30]	log p [1]: 1.6[b]; log p [2]: 1.6[a];
	CSCC(C)(C)Nc1nc(Nc2ccc(N3CCOC3=O)cc2)ncc1Cl [Example 40]	log p [3]: 3.09[c]
	CC1CC(=O)N(c2cccc(Nc3ncc(Br)c(NC4CC4)n3)c2)C1 (stereo not shown) [Example 99]	log p [1]: 1.85[b]; log p [3]: 2.79[c];
	COCC(C)Nc1nc(Nc2cccc(N3C(=O)OCC3C)c2)ncc1Cl (stereo not shown) [Example 118]	log p [1]: 1.6[b]; log p [2]: 1.6[a];
	C[C@@H]1CCN(c2cccc(Nc3ncc(Cl)c(NC4CC4)n3)c2)C1=O [Example 123]	log p [1]: 2.86[b]; log p [2]: 2.86[a];
	C[C@H]1CCN(c2cccc(Nc3ncc(Cl)c(NC4CC4)n3)c2)C1=O [Example 124]	log p [1]: 2.86[b]; log p [2]: 2.86[a];
	CC1CCC(=O)N1c1cccc(Nc2ncc(Cl)c(NC3CC3)n2)c1 (stereo not shown) [Example 125]	log p [1]: 2.59[b]; log p [2]: 2.59[a];
	CC1CCC(=O)N1c1cccc(Nc2ncc(Cl)c(NC3CC3)n2)c1 (stereo not shown) [Example 126]	log p [1]: 2.59[b]; log p [2]: 2.59[a];
	CC(C)Nc1nc(Nc2cccc(N3CCC(C)C3=O)c2)ncc1Cl (stereo not shown) [Example 185]	log p [1]: 1.82[b]; log p [3]: 3.07[c];
	CC1CCN(c2cccc(Nc3ncc(Cl)c(N(C)C4CC4)n3)c2)C1=O (stereo not shown) [Example 186]	log p [1]: 2.66[b]; log p [3]: 3.48[c];
	CC1CC(=O)N(c2cccc(Nc3ncc(Cl)c(NC4CCC4)n3)c2)C1=O (stereo not shown) [Example 188]	log p [1]: 1.76[b]; log p [3]: 2.67[c];
	CCOC(=O)[C@@H]1CCC(=O)N1c1cccc(Nc2ncc(Br)c(NC3CC3)n2)c1 [Example 191]	log p [3]: 2.65[c]
	O=C1CCC(=O)N1Cc1cccc(Nc2ncc(Cl)c(NC3CC3)n2)c1 [Example 235]	log p [3]: 2.32[c];
	CC1CC(Nc2nc(Nc3cccc(N4CCOC4=O)c3)ncc2Cl)C1 (stereo not shown) [Example 256]	log p [3]: 2.99[c]
	CC1COC(=O)N1c1cccc(Nc2ncc(C(F)(F)F)c(NC3CC3)n2)c1 (stereo not shown) [Example 261]	log p [3]: 2.7[c];
	CC(C)Nc1nc(Nc2cccc(N3C(=O)OCC3C)c2)ncc1Br (stereo not shown) [Example 262]	log p [3]: 2.83[c];
	COc1ccc(Nc2ncc(Cl)c(NC3CC3)n2)cc1N1CCCC1=O [Example 328]	log p [3]: 2.18[c];
2.75	COCC(C)Nc1nc(Cl)ncc1C(F)(F)F (stereo not shown) [Example V-3, 2-Chloro-N-(3-methoxypropan-2-yl)-5-trifluoromethylpyrimidin-4-amine]	
	FC(F)CNc1nc(Cl)ncc1Cl [Example V-4, 2,5-Dichloro-N-(2,2-difluoroethyl)pyrimidin-4-amine]	log P (pH 2.3) [2]: 1.96
2.26	FC(F)(F)CNc1nc(Cl)ncc1Cl [Example V-5, 2,5-Dichloro-N-(2,2,2-trifluoroethyl)pyrimidin-4-amine]	
3.47	CC1CC(Nc2nc(Cl)ncc2Br)C1 (stereo not shown) [Example V-6, 5-Bromo-2-chloro-N-(3-methylcyclobutyl)pyrimidin-4-amine]	
2.82	CN(c1nc(Cl)ncc1Cl)C1CC1 [Example V-26, 2,5-Dichloro-N-methyl-N-cyclopropylpyrimidin-4-amine]	
3.04	CC1(C)CC1Nc1nc(Cl)ncc1Cl (stereo not shown) [Example V-27, 2,5-Dichloro-N-(2,2-dimethylcyclopropyl)pyrimidin-4-amine]	
2.17	Fc1cnc(Cl)nc1NC1CCC1 [Example V-28, 5-Fluoro-2-chloro-N-cyclobutylpyrimidin-4-amine]	
1.31	Clc1ncc(Cl)c(NC2COC2)n1 [Example V-29, 2,5-Dichloro-N-(oxetan-3-yl)pyrimidin-4-amine]	
1.83	COCC(C)Nc1nc(Cl)ncc1C#N (stereo not shown) [Example V-30, 2-Chloro-4-[(1-methoxypropan-2-yl)-amino]pyrimidine-5-carbonitrile]	
2.84	Clc1ncc(Cl)c(N2CCSCC2)n1 [Example V-32, 4-(2,5-Dichloropyrimidin-4-yl)thiomorpholine]	

chromatographic logP [2]	SMILES	also measured
1.99	Clc1ncc(Cl)c(N2CCOCC2)n1 [Example V-33, 4-(2,5-Dichloropyrimidin-4-yl)morpholine]	
2.78	Clc1ncc(Cl)c(N2CCCC2)n1 [Example V-34, 2,5-Dichloro-4-(pyrrolidin-1-yl)pyrimidine]	
2.11	Clc1ncc(Cl)c(N2CCC2)n1 [Example V-35, 4-(Azetidin-1-yl)-2,5-dichloropyrimidine]	
3.52	Clc1ncc(Cl)c(N2CCCCC2)n1 [Example V-36, 2,5-Dichloro-4-(piperidin-1-yl)pyrimidine]	
2.66	CC(Nc1nc(Cl)ncc1Cl)C(F)(F)F (stereo not shown) [Example V-37, 2,5-Dichloro-N-(1,1,1-trifluoropropan-2-yl)pyrimidin-4-amine]	
	CCCNc1nc(Cl)ncc1Cl [Example V-38, 2,5-Dichloro-N-propylpyrimidin-4-amine]	log p [2]: 2.42
3.2	CC1CC(Nc2nc(Cl)ncc2Cl)C1 (stereo not shown) [Example V-39, 2,5-Dichloro-N-(3-methylcyclobutyl)pyrimidin-4-amine]	
2.53	CC1CC1Nc1nc(Cl)ncc1Cl (stereo not shown) [Example V-40, 2,5-Dichloro-N-(2-methylcyclopropyl)pyrimidin-4-amine]	
2.68	CC1CC1Nc1nc(Cl)ncc1Br (stereo not shown) [Example V-41, 5-Bromo-2-chloro-N-(2-methylcyclopropyl)pyrimidin-4-amine]	
3.02	CC1CC1Nc1nc(Cl)ncc1C(F)(F)F (stereo not shown) [Example V-42, 2-Chloro-N-(2-methylcyclopropyl)-5-(trifluoromethyl)pyrimidin-4-amine]	
3.1	CCC1CC1Nc1nc(Cl)ncc1Cl (stereo not shown) [Example V-43, 2,5-Dichloro-N-(2-ethylcyclopropyl)pyrimidin-4-amine]	
2.23	CCC(CC(C)C(=O)OC)[N+](=O)[O-] (stereo not shown) [Methyl 2-methyl-4-nitrohexanoate]	
2.98	O=C1CCCN1c1cccc(Nc2ncc(C(F)(F)F)c(Cl)n2)c1 [VI-1, 1-(3-{[4-Chloro-5-(trifluoromethyl)pyrimidin-2-yl]amino}phenyl)pyrrolidin-2-one]	
2.84	O=C1CCCN1c1cc(Nc2ncc(C(F)(F)F)c(Cl)n2)ccc1F [VI-2, 1-(5-{[4-Chloro-5-(trifluoromethyl)pyrimidin-2-yl]amino}-2-fluorophenyl)pyrrolidin-2-one]	
2.28	O=C1CCCN1c1cccc(Nc2ncc(C(F)F)c(F)n2)c1 [VI-3, 1-(3-{[5-(Difluoromethyl)-4-fluoropyrimidin-2-yl]amino}phenyl)pyrrolidin-2-one]	
2.74	O=C1OCCN1c1ccc(Nc2ncc(C(F)(F)F)c(Cl)n2)cc1 [VI-4, 3-(4-{[4-Chloro-5-(trifluoromethyl)pyrimidin-2-yl]amino}phenyl)-1,3-oxazolidin-2-one]	log P (pH 2.3) [2]: 2.76
3.34	Brc1cnc(Nc2cccc(I)c2)nc1NC1CC1 [VII-2, 5-Bromo-N^4-cyclopropyl-N^2-(3-iodophenyl)pyrimidine-2,4-diamine]	
3.99	FC(F)(F)Oc1ccc(Nc2ncc(Cl)c(NC3CC3)n2)cc1Br [VII-3, 5-Chloro-N^2-[3-bromo-4-(trifluoromethoxy)phenyl]-N^4-cyclopropylpyrimidine-2,4-diamine]	
2.91	Cc1ccc(Nc2ncc(Cl)c(NC3CC3)n2)cc1Br [VII-4, 5-Chloro-N^2-[3-bromo-4-(methyl)phenyl]-N^4-cyclopropylpyrimidine-2,4-diamine]	
2.91	Clc1cnc(Nc2cccc(Br)c2)nc1NC1CC1 [VII-5, N^2-(3-Bromophenyl)-5-chloro-N^4-cyclopropylpyrimidine-2,4-diamine]	
3.55	Clc1ccc(Nc2ncc(Cl)c(NC3CC3)n2)cc1Br [VII-6, N^2-(3-Bromo-4-chlorophenyl)-5-chloro-N^4-cyclopropylpyrimidine-2,4-diamine]	
4.6	FC(F)(F)c1cc(Br)cc(Nc2ncc(Cl)c(NC3CC3)n2)c1 [VII-7, N^2-[3-Bromo-5-(trifluoromethyl)phenyl]-5-chloro-N^4-cyclopropylpyrimidine-2,4-diamine]	
2.55	Clc1cnc(Nc2ccc(Br)cc2)nc1NC1CC1 [VII-8, N^2-(4-Bromophenyl)-5-chloro-N^4-cyclopropylpyrimidine-2,4-diamine]	
2.84	Brc1ccc(Nc2ncc(Br)c(NCC3CC3)n2)cc1 [VII-9, 5-Bromo-N^2-(4-bromophenyl)-N^4-(cyclopropylmethyl)pyrimidine-2,4-diamine]	
3.18	Brc1ccc(Nc2ncc(Br)c(NC3CCC3)n2)cc1 [VII-10, 5-Bromo-N^2-(4-bromophenyl)-N^4-cyclobutylpyrimidine-2,4-diamine]	
2.7	Brc1ccc(Nc2ncc(Br)c(NC3CC3)n2)cc1 [VII-11, 5-Bromo-N^2-(4-bromophenyl)-N^4-cyclopropylpyrimidine-2,4-diamine]	
3.49	Clc1cnc(Nc2ccc(I)cc2)nc1NC1CCC1 [VII-12, 5-Chloro-N^4-cyclobutyl-N^2-(4-iodophenyl)pyrimidine-2,4-diamine]	
